In US8618111B2, “5-alkynyl-pyrimidines” (Boehringer Ingelheim International GmbH, priority 2010, dated 2013):

What was measured:
mTOR = mTOR (Homo sapiens (Human), UniProt P42345); experiment: mTOR kinase activity assay (phosphorylation status of mTOR substrate 4E-BP1; TR-FRET); assay type: biochemical; conditions: GFP-4E-BP1 substrate, 8 μM ATP
PI3Kalpha = PI3Kalpha (Homo sapiens (Human), UniProt P42336); experiment: Inhibition of PI3Kalpha-induced PIP-2 phosphorylation (filter-binding assay); assay type: biochemical; conditions: 33P-ATP
PI3Kalpha, sequence (P42336 whole entry, species assumed): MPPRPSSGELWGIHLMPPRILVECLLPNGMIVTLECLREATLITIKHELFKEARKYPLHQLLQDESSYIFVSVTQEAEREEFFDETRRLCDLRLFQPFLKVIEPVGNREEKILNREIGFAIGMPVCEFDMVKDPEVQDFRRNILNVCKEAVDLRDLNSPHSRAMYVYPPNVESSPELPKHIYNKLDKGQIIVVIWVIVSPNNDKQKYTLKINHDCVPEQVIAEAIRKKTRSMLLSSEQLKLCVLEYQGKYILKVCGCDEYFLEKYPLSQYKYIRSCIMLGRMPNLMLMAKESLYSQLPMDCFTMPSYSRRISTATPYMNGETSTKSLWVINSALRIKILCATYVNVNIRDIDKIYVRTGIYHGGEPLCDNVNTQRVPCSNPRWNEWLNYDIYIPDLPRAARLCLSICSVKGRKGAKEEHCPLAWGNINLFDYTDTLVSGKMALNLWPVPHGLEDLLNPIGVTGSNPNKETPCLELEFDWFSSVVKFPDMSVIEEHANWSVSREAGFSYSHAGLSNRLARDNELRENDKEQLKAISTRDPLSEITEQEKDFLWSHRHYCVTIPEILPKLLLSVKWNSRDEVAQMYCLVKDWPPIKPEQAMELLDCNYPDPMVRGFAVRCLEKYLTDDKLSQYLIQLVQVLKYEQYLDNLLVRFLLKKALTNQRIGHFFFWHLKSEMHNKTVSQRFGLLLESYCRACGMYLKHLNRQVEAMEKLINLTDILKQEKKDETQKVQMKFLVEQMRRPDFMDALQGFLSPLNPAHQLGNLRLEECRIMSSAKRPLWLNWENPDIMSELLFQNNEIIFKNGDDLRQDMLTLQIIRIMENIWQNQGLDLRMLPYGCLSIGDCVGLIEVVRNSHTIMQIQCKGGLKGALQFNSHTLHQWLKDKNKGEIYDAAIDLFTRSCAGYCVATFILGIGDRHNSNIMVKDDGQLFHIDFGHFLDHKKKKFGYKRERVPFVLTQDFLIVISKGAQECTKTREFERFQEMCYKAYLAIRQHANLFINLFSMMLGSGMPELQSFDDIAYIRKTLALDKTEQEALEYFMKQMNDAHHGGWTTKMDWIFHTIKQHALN
PI3Kalpha, sequence (P27986 whole entry partner, species assumed): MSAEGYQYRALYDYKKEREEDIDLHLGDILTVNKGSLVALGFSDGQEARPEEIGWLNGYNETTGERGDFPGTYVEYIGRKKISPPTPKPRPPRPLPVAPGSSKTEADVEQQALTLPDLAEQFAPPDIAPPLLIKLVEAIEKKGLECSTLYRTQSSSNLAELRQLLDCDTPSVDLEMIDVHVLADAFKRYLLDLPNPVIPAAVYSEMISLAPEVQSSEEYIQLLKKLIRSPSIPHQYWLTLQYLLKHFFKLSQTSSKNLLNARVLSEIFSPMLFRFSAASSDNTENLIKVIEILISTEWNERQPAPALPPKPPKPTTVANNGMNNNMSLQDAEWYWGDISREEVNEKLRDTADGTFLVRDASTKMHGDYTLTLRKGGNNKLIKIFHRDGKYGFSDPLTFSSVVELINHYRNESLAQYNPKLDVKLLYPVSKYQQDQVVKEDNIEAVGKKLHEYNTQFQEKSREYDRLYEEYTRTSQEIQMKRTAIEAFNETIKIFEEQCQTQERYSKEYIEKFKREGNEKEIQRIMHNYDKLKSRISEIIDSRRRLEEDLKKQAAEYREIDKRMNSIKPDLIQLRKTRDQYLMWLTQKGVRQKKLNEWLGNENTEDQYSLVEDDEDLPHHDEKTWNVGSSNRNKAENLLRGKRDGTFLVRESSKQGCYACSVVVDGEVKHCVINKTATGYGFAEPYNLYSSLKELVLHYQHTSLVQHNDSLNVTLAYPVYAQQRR
Experimental: Inhibition of PI3Kalpha-Induced PIP-2 Phosphorylation
Method Type: Filter-Binding-Assay
Aliquoted in desired amounts and stored at −80° C. Final assay concentration 25 ng/well.

[1] = tested on: PC3 (human prostate carcinoma cell line) cells; experiment: PC3 proliferation test; assay type: cell-based; conditions: PC-3, 72 h, 3 days incubation, DNA dye fluorescence
Experimental: The test is based on measurement of cellular DNA content via fluorescent dye binding. Because cellular DNA content is highly regulated, it is closely proportional to cell number. The extent of proliferation is determined by comparing cell counts for samples treated with drugs with untreated controls.
PC3 (human prostate carcinoma cell line) cells are sown in microtitre plates and incubated overnight in culture medium at 37° C. and 5% CO2. The test substances are diluted stepwise and added to the cells such that the total volume is 200 μL/well. Cells to which diluent, but not substance, is added serve as controls.

[2] = tested on: U87MG human glioblastoma cell line; experiment: CyQuant assay in U87MG cells; assay type: cell-based; conditions: U-87 MG, 72 h, 3 days incubation
Experimental: CyQuant Assay in U87MG Cells
3. […] Evaluation • Calculate EC50 using GraphPad Prism (Fifty)

BT474 = BT474 cell assay (EC50); assay type: cell-based; conditions: Homo sapiens, BT-474; BT474 cells

mTOR, sequence (P42345 1360-2549): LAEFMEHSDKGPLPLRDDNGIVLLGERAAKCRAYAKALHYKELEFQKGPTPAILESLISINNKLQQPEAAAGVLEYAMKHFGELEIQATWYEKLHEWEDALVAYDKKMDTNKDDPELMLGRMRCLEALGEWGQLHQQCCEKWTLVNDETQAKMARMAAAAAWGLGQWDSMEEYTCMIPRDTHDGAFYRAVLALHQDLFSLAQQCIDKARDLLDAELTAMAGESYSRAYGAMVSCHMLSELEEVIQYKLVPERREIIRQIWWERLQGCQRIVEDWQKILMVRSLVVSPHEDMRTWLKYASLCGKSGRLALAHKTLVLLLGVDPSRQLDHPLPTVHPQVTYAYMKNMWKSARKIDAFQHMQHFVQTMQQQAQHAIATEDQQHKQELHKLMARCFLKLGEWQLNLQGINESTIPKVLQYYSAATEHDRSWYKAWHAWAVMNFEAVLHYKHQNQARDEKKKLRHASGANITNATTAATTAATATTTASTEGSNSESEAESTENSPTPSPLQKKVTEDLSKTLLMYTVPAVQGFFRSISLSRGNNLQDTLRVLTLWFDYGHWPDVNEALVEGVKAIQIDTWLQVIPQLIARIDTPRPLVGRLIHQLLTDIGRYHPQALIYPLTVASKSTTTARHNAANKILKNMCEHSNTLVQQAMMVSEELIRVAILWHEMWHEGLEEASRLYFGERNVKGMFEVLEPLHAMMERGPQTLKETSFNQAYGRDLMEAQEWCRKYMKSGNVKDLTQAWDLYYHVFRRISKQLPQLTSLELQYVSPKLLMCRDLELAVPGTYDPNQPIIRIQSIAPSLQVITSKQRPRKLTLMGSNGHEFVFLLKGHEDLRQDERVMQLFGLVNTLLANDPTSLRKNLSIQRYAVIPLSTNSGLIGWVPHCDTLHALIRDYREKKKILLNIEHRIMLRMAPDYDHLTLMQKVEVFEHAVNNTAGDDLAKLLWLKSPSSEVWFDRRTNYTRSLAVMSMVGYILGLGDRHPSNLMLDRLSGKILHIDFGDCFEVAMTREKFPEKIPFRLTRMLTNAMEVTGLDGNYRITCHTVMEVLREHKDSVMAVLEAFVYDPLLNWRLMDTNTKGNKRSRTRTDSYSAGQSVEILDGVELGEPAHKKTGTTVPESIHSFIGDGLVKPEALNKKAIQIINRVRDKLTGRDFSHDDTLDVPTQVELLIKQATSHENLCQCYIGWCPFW

Structure (SMILES)	IC50 (mTOR) [µM]	IC50 PI3Ka (PI3Kalpha) [µM]	EC50 [1] [µM]	EC50 [2] [µM]	EC50 (BT474) [µM]
COCCC(=O)NCC1CCN(c2ncnc(C)c2C#Cc2ccc(N)nc2)CC1 [Example F-5]	0.018	0.069	0.141	–	–
Cc1ncnc(N2CCC(CNC(=O)C3CCCCC3)CC2)c1C#Cc1ccc(N)nc1 [Example F-6]	0.078	0.051	0.277	–	–
CCc1ncnc(N2CCN(C(=O)NC)CC2)c1C#Cc1ccc(N)nc1 [Example G-1]	0.084	0.033	0.212	–	–
CCc1ncnc(N2CCN(C(=O)c3ccccn3)CC2)c1C#Cc1ccc(N)nc1 [Example G-2]	0.09	0.047	0.138	–	–
CCc1ncnc(N2CCN(C(=O)CC#N)CC2)c1C#Cc1ccc(N)nc1 [Example G-3]	0.091	0.06	0.55	–	–
CCc1ncnc(N2CCN(C(=O)C3CC3)CC2)c1C#Cc1ccc(N)nc1 [Example G-4]	0.113	0.046	0.206	–	–
CCc1ncnc(N2CCN(C(=O)c3ccccc3)CC2)c1C#Cc1ccc(N)nc1 [Example G-5]	0.157	0.11	0.225	–	–
CCc1ncnc(N2CCN(C(=O)OC)CC2)c1C#Cc1ccc(N)nc1 [Example G-6]	0.101	0.052	0.106	–	–
CCc1ncnc(N2CCN(C(=O)c3ccco3)CC2)c1C#Cc1ccc(N)nc1 [Example G-7]	0.06	0.037	0.197	–	–
Cc1ncnc(N2CCN(C(=O)C3CCC3)CC2)c1C#Cc1ccc(N)nc1 [Example G-8]	0.064	0.022	0.206	–	–
Cc1ncnc(N2CCN(C(=O)c3ccno3)CC2)c1C#Cc1ccc(N)nc1 [Example G-9]	0.055	0.039	0.31	–	–
Cc1ccc(C(=O)N2CCN(c3ncnc(C)c3C#Cc3ccc(N)nc3)CC2)o1 [Example G-10]	0.06	0.025	0.221	–	–
CCc1ncnc(N2CCC3(CCN(C(C)=O)CC3)CC2)c1C#Cc1ccc(N)nc1 [Example G-11]	0.03	0.036	0.055	–	–
CCc1ncnc(N2CCC3(CCN(C(=O)COC)CC3)CC2)c1C#Cc1ccc(N)nc1 [Example G-12]	0.032	0.037	0.041	–	–
CCc1ncnc(N2CCC3(CCN(C(=O)NC)CC3)CC2)c1C#Cc1ccc(N)nc1 [Example G-13]	0.035	0.05	0.053	–	–
CCc1ncnc(N2CCCCC2)c1C#Cc1ccc(NC)nc1 [Example H-1]	0.055	0.214	–	0.745	–
CCc1ncnc(N2CCN(C(C)C)CC2)c1C#Cc1ccc(N)nc1 [Example H-6]	0.015	0.055	–	–	0.072
CCc1ncnc(N2CCC3(CC2)COC3)c1C#Cc1ccc(N)nc1 [Example H-7]	0.138	0.097	–	–	0.944
CCc1ncnc(N2CCc3ncncc3C2)c1C#Cc1ccc(N)nc1 [Example H-11]	0.027	0.05	–	–	0.093
CCc1ncnc(N2CCN(C)C(=O)C2)c1C#Cc1ccc(N)nc1 [Example H-13]	0.037	0.072	–	–	0.076
CCc1ncnc(N2CCN(CCNS(C)(=O)=O)CC2)c1C#Cc1ccc(N)nc1 [Example H-14]	0.018	0.06	–	–	0.063
CCc1ncnc(N2CCN(CC(C)O)CC2)c1C#Cc1ccc(N)nc1 (stereo not drawn) [Example H-20]	0.051	0.152	–	–	0.138
CCc1ncnc(N2CCN(c3ccccn3)CC2)c1C#Cc1ccc(N)nc1 [Example H-21]	0.033	0.042	–	–	0.068
CCc1ncnc(N2CCN(c3ccncc3)CC2)c1C#Cc1ccc(N)nc1 [Example H-22]	0.049	0.229	–	–	0.194
CCc1ncnc(N2CCN(c3cccnc3)CC2)c1C#Cc1ccc(N)nc1 [Example H-23]	0.014	0.048	–	–	0.139
CCc1ncnc(N2CCN(c3ccccc3)CC2)c1C#Cc1ccc(N)nc1 [Example H-24]	0.089	0.129	–	–	0.078
CCc1ncnc(N2CCN(c3ncccn3)CC2)c1C#Cc1ccc(N)nc1 [Example H-25]	0.014	0.048	–	–	0.015
